{
  "source": "PubChem BioAssay (NCI)",
  "assay_in_all_cases": "NCI-60 cell line screen, 48 h",
  "key": {"786-0 renal": {"test_system": "786-0 renal"}, "A498 renal": {"test_system": "A498 renal"}, "A549 NSCLC": {"test_system": "A549 NSCLC"}, "ACHN renal": {"test_system": "ACHN renal"}, "BT-549 breast": {"test_system": "BT-549 breast"}, "DU-145 prostate": {"test_system": "DU-145 prostate"}, "HCC-2998 colon": {"test_system": "HCC-2998 colon"}, "HCT-116 colon": {"test_system": "HCT-116 colon"}, "HL-60(TB) leukemia": {"test_system": "HL-60(TB) leukemia"}, "HOP-62 NSCLC": {"test_system": "HOP-62 NSCLC"}, "HOP-92 NSCLC": {"test_system": "HOP-92 NSCLC"}, "HS 578T breast": {"test_system": "HS 578T breast"}, "KM12 colon": {"test_system": "KM12 colon"}, "M14 melanoma": {"test_system": "M14 melanoma"}, "MCF7 breast": {"test_system": "MCF7 breast"}, "MDA-MB-231 breast": {"test_system": "MDA-MB-231 breast"}, "MDA-MB-435": {"test_system": "MDA-MB-435"}, "NCI-H226 lung": {"test_system": "NCI-H226 lung"}, "NCI-H23 lung": {"test_system": "NCI-H23 lung"}, "NCI-H460 lung": {"test_system": "NCI-H460 lung"}, "NCI/ADR-RES ovarian": {"test_system": "NCI/ADR-RES ovarian"}, "OVCAR-5 ovarian": {"test_system": "OVCAR-5 ovarian"}, "PC-3 prostate": {"test_system": "PC-3 prostate"}, "SF-295 CNS": {"test_system": "SF-295 CNS"}, "SF-539 CNS": {"test_system": "SF-539 CNS"}, "SK-MEL-2 melanoma": {"test_system": "SK-MEL-2 melanoma"}, "SK-MEL-28 melanoma": {"test_system": "SK-MEL-28 melanoma"}, "SK-OV-3 ovarian": {"test_system": "SK-OV-3 ovarian"}, "SNB-19 CNS": {"test_system": "SNB-19 CNS"}, "SNB-75 CNS": {"test_system": "SNB-75 CNS"}, "TK-10 renal": {"test_system": "TK-10 renal"}, "U251 CNS": {"test_system": "U251 CNS"}, "UACC-257 melanoma": {"test_system": "UACC-257 melanoma"}, "UACC-62 melanoma": {"test_system": "UACC-62 melanoma"}, "UO-31 renal": {"test_system": "UO-31 renal"}},
  "note": "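Protocol summary: plate cells (96-well), add compound at 5 concentrations, incubate 48 h, interpolate endpoints linearly. GI50: concentration for 50% inhibition of growth. Definition used: TGI = concentration required for complete inhibition of growth.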",
  "data": [
    {"smiles": "Cc1ccc(NC(=O)c2nc(S(C)(=O)=O)oc2-c2ccc(F)cc2)cc1Nc1ccc2ncn(C)c(=O)c2c1", "values": [
      {"measurement": "GI50", "setting": "786-0 renal", "result": 2, "unit": "µM"},
      {"measurement": "TGI", "setting": "786-0 renal", "result": 3.55, "unit": "µM"},
      {"measurement": "GI50", "setting": "A498 renal", "result": 16.3, "unit": "µM"},
      {"measurement": "TGI", "setting": "A498 renal", "result": 29.8, "unit": "µM"},
      {"measurement": "GI50", "setting": "A549 NSCLC", "result": 13.9, "unit": "µM"},
      {"measurement": "TGI", "setting": "A549 NSCLC", "result": 29.5, "unit": "µM"},
      {"measurement": "GI50", "setting": "ACHN renal", "result": 1.62, "unit": "µM"},
      {"measurement": "TGI", "setting": "ACHN renal", "result": 2.97, "unit": "µM"},
      {"measurement": "GI50", "setting": "BT-549 breast", "result": 1.48, "unit": "µM"},
      {"measurement": "TGI", "setting": "BT-549 breast", "result": 2.86, "unit": "µM"},
      {"measurement": "GI50", "setting": "DU-145 prostate", "result": 1.72, "unit": "µM"},
      {"measurement": "TGI", "setting": "DU-145 prostate", "result": 3.09, "unit": "µM"},
      {"measurement": "GI50", "setting": "HCC-2998 colon", "result": 2.54, "unit": "µM"},
      {"measurement": "TGI", "setting": "HCC-2998 colon", "result": 6.47, "unit": "µM"},
      {"measurement": "GI50", "setting": "HCT-116 colon", "result": 1.75, "unit": "µM"},
      {"measurement": "TGI", "setting": "HCT-116 colon", "result": 3.37, "unit": "µM"},
      {"measurement": "GI50", "setting": "HL-60(TB) leukemia", "result": 2.11, "unit": "µM"},
      {"measurement": "TGI", "setting": "HL-60(TB) leukemia", "result": 5.2, "unit": "µM"},
      {"measurement": "GI50", "setting": "HOP-62 NSCLC", "result": 2.49, "unit": "µM"},
      {"measurement": "TGI", "setting": "HOP-62 NSCLC", "result": 7.11, "unit": "µM"},
      {"measurement": "GI50", "setting": "HOP-92 NSCLC", "result": 1.91, "unit": "µM"},
      {"measurement": "TGI", "setting": "HOP-92 NSCLC", "result": 3.87, "unit": "µM"},
      {"measurement": "GI50", "setting": "HS 578T breast", "result": 3.06, "unit": "µM"},
      {"measurement": "TGI", "setting": "HS 578T breast", "result": 14.9, "unit": "µM"},
      {"measurement": "GI50", "setting": "KM12 colon", "result": 3.12, "unit": "µM"},
      {"measurement": "TGI", "setting": "KM12 colon", "result": 11.1, "unit": "µM"},
      {"measurement": "GI50", "setting": "M14 melanoma", "result": 1.75, "unit": "µM"},
      {"measurement": "TGI", "setting": "M14 melanoma", "result": 3.72, "unit": "µM"},
      {"measurement": "GI50", "setting": "MCF7 breast", "result": 1.9, "unit": "µM"},
      {"measurement": "TGI", "setting": "MCF7 breast", "result": 4.43, "unit": "µM"},
      {"measurement": "GI50", "setting": "MDA-MB-231 breast", "result": 1.64, "unit": "µM"},
      {"measurement": "TGI", "setting": "MDA-MB-231 breast", "result": 3.15, "unit": "µM"},
      {"measurement": "GI50", "setting": "MDA-MB-435", "result": 2.48, "unit": "µM"},
      {"measurement": "TGI", "setting": "MDA-MB-435", "result": 7.28, "unit": "µM"},
      {"measurement": "GI50", "setting": "NCI-H226 lung", "result": 2.33, "unit": "µM"},
      {"measurement": "TGI", "setting": "NCI-H226 lung", "result": 5.52, "unit": "µM"},
      {"measurement": "GI50", "setting": "NCI-H23 lung", "result": 2.79, "unit": "µM"},
      {"measurement": "TGI", "setting": "NCI-H23 lung", "result": 9.19, "unit": "µM"},
      {"measurement": "GI50", "setting": "NCI-H460 lung", "result": 3.26, "unit": "µM"},
      {"measurement": "TGI", "setting": "NCI-H460 lung", "result": 10.9, "unit": "µM"},
      {"measurement": "GI50", "setting": "NCI/ADR-RES ovarian", "result": 3.14, "unit": "µM"},
      {"measurement": "TGI", "setting": "NCI/ADR-RES ovarian", "result": 15.7, "unit": "µM"},
      {"measurement": "GI50", "setting": "OVCAR-5 ovarian", "result": 2.1, "unit": "µM"},
      {"measurement": "TGI", "setting": "OVCAR-5 ovarian", "result": 5.29, "unit": "µM"},
      {"measurement": "GI50", "setting": "PC-3 prostate", "result": 2.13, "unit": "µM"},
      {"measurement": "TGI", "setting": "PC-3 prostate", "result": 4.47, "unit": "µM"},
      {"measurement": "GI50", "setting": "SF-295 CNS", "result": 16, "unit": "µM"},
      {"measurement": "TGI", "setting": "SF-295 CNS", "result": 31, "unit": "µM"},
      {"measurement": "GI50", "setting": "SF-539 CNS", "result": 1.65, "unit": "µM"},
      {"measurement": "TGI", "setting": "SF-539 CNS", "result": 3.14, "unit": "µM"},
      {"measurement": "GI50", "setting": "SK-MEL-2 melanoma", "result": 1.59, "unit": "µM"},
      {"measurement": "TGI", "setting": "SK-MEL-2 melanoma", "result": 3.29, "unit": "µM"},
      {"measurement": "GI50", "setting": "SK-MEL-28 melanoma", "result": 1.74, "unit": "µM"},
      {"measurement": "TGI", "setting": "SK-MEL-28 melanoma", "result": 3.4, "unit": "µM"},
      {"measurement": "GI50", "setting": "SK-OV-3 ovarian", "result": 14.1, "unit": "µM"},
      {"measurement": "TGI", "setting": "SK-OV-3 ovarian", "result": 27.1, "unit": "µM"},
      {"measurement": "GI50", "setting": "SNB-19 CNS", "result": 3.46, "unit": "µM"},
      {"measurement": "TGI", "setting": "SNB-19 CNS", "result": 9.86, "unit": "µM"},
      {"measurement": "GI50", "setting": "SNB-75 CNS", "result": 2.13, "unit": "µM"},
      {"measurement": "TGI", "setting": "SNB-75 CNS", "result": 5.65, "unit": "µM"},
      {"measurement": "GI50", "setting": "TK-10 renal", "result": 1.83, "unit": "µM"},
      {"measurement": "TGI", "setting": "TK-10 renal", "result": 3.25, "unit": "µM"},
      {"measurement": "GI50", "setting": "U251 CNS", "result": 2.01, "unit": "µM"},
      {"measurement": "TGI", "setting": "U251 CNS", "result": 3.84, "unit": "µM"},
      {"measurement": "GI50", "setting": "UACC-257 melanoma", "result": 1.88, "unit": "µM"},
      {"measurement": "TGI", "setting": "UACC-257 melanoma", "result": 3.72, "unit": "µM"},
      {"measurement": "GI50", "setting": "UACC-62 melanoma", "result": 2.03, "unit": "µM"},
      {"measurement": "TGI", "setting": "UACC-62 melanoma", "result": 4.88, "unit": "µM"},
      {"measurement": "GI50", "setting": "UO-31 renal", "result": 1.93, "unit": "µM"},
      {"measurement": "TGI", "setting": "UO-31 renal", "result": 3.4, "unit": "µM"}
    ]}
  ]
}
